Results published in US20050095239A1, “Methods and compositions for treating Alzheimer's disease” (priority 2002, published 2005).

What was measured:
[1] = test system: ABCA1 protein expression in Neuro2A cells; assay: ABCA1 immunoblot of Neuro2A cells treated with retinoic acid and oxysterols; format: cell-based, mouse; settings: for ABCA1 induction, densitometric analysis / increase of ABCA1 protein (immunoblot) compared with 22-hydroxycholesterol: 5 μM oxysterol with 5 μM retinoic acid; for increase of ABCA1 protein (immunoblot) compared with 22-hydroxycholesterol: one or two days
Protocol: (§1) Cell culture. Mouse Neuro2A (neuroblastoma) cells and human IMR-32 (neuroblastoma) cells (American Type Culture Collection, Manassas, Va.) were cultured in Optimem (Gibco, Invitrogen Life Technologies, Carlsbad, Calif.) supplemented with 10% fetal bovine serum. Mouse BV-2 (microglial) and rat C6 (glioma) cells were cultured in Dulbecco's modified Eagle's medium supplemented with 5% fetal bovine serum. Mouse primary neuronal cultures were generated as described (27). Briefly, cortical neurons were isolated from embryonic day 16 Swiss-Webster mice. Individual cortices was dissociated in calcium-free saline and plated on poly-D-lysine (Sigma) coated tissue culture dishes at the density of 1.5×10^6 cell/ml. The neurons were grown in Neurobasal Media (Gibco BRL) plus 10% fetal bovine serum. One hour after plating, medium with serum was replaced with medium containing B-27 supplement (Gibco BRL). Western blot. Cells were lysed in 250 mM sucrose, 10 mM HEPES (pH 7.4), supplemented with complete protease inhibitors (Sigma Chemical Co). Protein levels were quantified by the BCA assay (Pierce, Rockford, Ill.), and samples of 50 μg were held in SDS loading buffer with 2.5% β-mercaptoethanol for 30 min at room temperature, but were not boiled prior to loading. Proteins were separated by SDS-6% polyacrylamide gel electrophoresis and transferred to nitrocellulose. Blots were probed with the anti-ABC1 antibodies (1:1000), and developed with anti-rabbit linked HRP secondary antibody by chemiluminescence.

[2] = test system: ABCA1 protein expression in human neuroblastoma IMR-32 cells; assay: ABCA1 immunoblot of IMR-32 cells; format: cell-based; settings: with retinoic acid
Protocol: as §1, with “Blots were probed with the anti-ABC1 antibodies (1:1000), and developed with anti-rabbit linked HRP secondary antibody by chemiluminescence.” left out

[3] = test system: ABCA1 protein expression in mouse primary neurons; assay: ABCA1 immunoblot of mouse primary neurons treated with retinoic acid and 22-hydroxycholesterol; format: cell-based
Protocol: as §1, with “Blots were probed with the anti-ABC1 antibodies (1:1000), and developed with anti-rabbit linked HRP secondary antibody by chemiluminescence.” left out

[4] = test system: secreted Aβ42 from Neuro2A cells; assay: Aβ42 ELISA of conditioned medium of Neuro2A cells; format: cell-based, mouse; settings: for increase of secreted Aβ42 over vehicle-treated cells: with retinoic acid, one day, 22-hydroxycholesterol 10 uM
Protocol: (§2) Cell culture. Mouse Neuro2A (neuroblastoma) cells and human IMR-32 (neuroblastoma) cells (American Type Culture Collection, Manassas, Va.) were cultured in Optimem (Gibco, Invitrogen Life Technologies, Carlsbad, Calif.) supplemented with 10% fetal bovine serum. Mouse BV-2 (microglial) and rat C6 (glioma) cells were cultured in Dulbecco's modified Eagle's medium supplemented with 5% fetal bovine serum. Mouse primary neuronal cultures were generated as described (27). Briefly, cortical neurons were isolated from embryonic day 16 Swiss-Webster mice. Individual cortices was dissociated in calcium-free saline and plated on poly-D-lysine (Sigma) coated tissue culture dishes at the density of 1.5×10^6 cell/ml. The neurons were grown in Neurobasal Media (Gibco BRL) plus 10% fetal bovine serum. One hour after plating, medium with serum was replaced with medium containing B-27 supplement (Gibco BRL).
(§3) RNA inhibition. Double stranded RNA (RNAi) was generated homologous to a region of the 5′ end of the coding portion of the mouse ABCA1 gene, 5′-AAGTGGCCTGGCCTCTCTTTA-3′ (SEQ ID NO:2) (Dharmacon Research Inc, Lafayette, Colo.). As a negative control, we used a sequence directed against the human hsp70 gene. Neuro2A cells were transfected with the RNAi with Effectene transfection reagent (Qiagen, Valencia, Calif.) according to manufacturer protocol. After an overnight exposure, RNAi complex was removed, cells were washed one time in growth medium, and the media was replaced with Neurobasal medium with 2% B-27 with or without LXR/RXR agonists for one day. Conditioned media was collected and analyzed for Aβ.
(§4) Aβanalyses. Cells were cultured in Neurobasal medium with 2% B-27 for one day in the presence or absence of LXR/RXR agonists. Aβ40 and Aβ42 levels in the conditioned medium were determined by ELISA, with BNT77 as a capture antibody and BA23-HRP for Aβ40 or BC05-HRP for Aβ42 as detection antibodies (28). Aβ antibodies for ELISA were the generous gift of Takeda Chemical Industries.

[5] = test system: ABCA1 protein expression in BV-2 cells; assay: ABCA1 immunoblot of BV-2 microglial cells; format: cell-based, mouse
Protocol: as §1

[6] = test system: ABCA1 protein expression in C6 cells; assay: ABCA1 immunoblot of C6 glioma cells; format: cell-based, rat
Protocol: as §1

[7] = test system: secreted Aβ40 from Neuro2A cells; assay: Aβ40 ELISA of conditioned medium of Neuro2A cells; format: cell-based, mouse; settings: for increase of secreted Aβ40 over vehicle-treated cells: with retinoic acid, one day, 22-hydroxycholesterol 10 uM
Protocol: as §2, §3, §4

[8] = test system: LXRα or LXRβ isoforms; settings: references 37, 38; cited from earlier work
[9] = cells treated only with buffer or with the RNAi named
[10] = retinoic acid and 22-hydroxycholesterol vs vehicle (ethanol), absence of RNAi
[11] = 5 μM retinoic acid and 5 μM 22-hydroxycholesterol together
[12] = 1 μM TO-901317 in the presence of 5 μM retinoic acid

In the case of `CC(C)CCC[C@@H](C)[C@H]1CC[C@H]2[C@@H]3C(=O)C=C4C[C@@H](O)CC[C@]4(C)[C@H]3CC[C@]12C` [7-ketocholesterol], the “ABCA1 induction, densitometric analysis” value [1] was “only half that level” and the “increase of ABCA1 protein (immunoblot) compared with 22-hydroxycholesterol” value [1] was “not as efficacious”.

For `CC(C)CC[C@@H](O)[C@@H](C)[C@H]1CC[C@H]2[C@@H]3CC=C4C[C@@H](O)CC[C@]4(C)[C@H]3CC[C@]12C` [22-hydroxycholesterol, 22(R)-hydroxycholesterol], the ABCA1 levels [2] was “detectable ABCA1 levels only after induction”, the “ABCA1 induction, densitometric analysis” value [1] was “equivalent extent” and the “expression of ABCA1” value ([1]; 10 μM retinoic acid and 22-hydroxycholesterol together, untreated cells low or undetectable) was “clearly apparent”. For the same compound, the “up-regulation of ABCA1 in cells treated only with the one compound” value ([1]; compound alone, some experiments) was “weak up-regulation”, the “ABCA1 expression with increasing concentration” value ([3]; 22-hydroxycholesterol together with retinoic acid, from 100 nM to 10 uM) was “further increased ABCA1 expression” and the “ABCA1 protein compared to untreated cells” value ([3]; one-day treatment, 100 nM 22-hydroxycholesterol together with 100 nM retinoic acid) was “up-regulation of ABCA1 protein”. For the same compound, the “secreted Aβ42 after 22-hydroxycholesterol/retinoic acid treatment, in words” value [4, 9] was “significantly increased”, the “increase of Aβ42, control cells of the RNAi experiment” value [4, 10] was 62% and the “increase of secreted Aβ42 over vehicle-treated cells” value [4] was 65%. The ABCA1 expression [5, 11] was “increased”, the ABCA1 expression [6, 11] was “increased” and the “secreted Aβ40 after 22-hydroxycholesterol/retinoic acid treatment, in words” value [7, 9] was “significantly increased”. The “increase of Aβ40, control cells of the RNAi experiment” value [7, 10] was 29% and the “increase of secreted Aβ40 over vehicle-treated cells” value [7] was 29%.

For `CC(C)[C@@H](O)CC[C@@H](C)[C@H]1CC[C@H]2[C@@H]3CC=C4C[C@@H](O)CC[C@]4(C)[C@H]3CC[C@]12C` [24S-hydroxycholesterol], the “ABCA1 expression through interactions with LXRα or LXRβ” value [8] is given as “induces ABCA1 expression”.

In the case of `C[C@H](CCCC(C)(C)O)[C@H]1CC[C@H]2[C@@H]3CC=C4C[C@@H](O)CC[C@]4(C)[C@H]3CC[C@]12C` [25-hydroxycholesterol], the “ABCA1 induction, densitometric analysis” value [1] was “equivalent extent” and the “increase of ABCA1 protein (immunoblot) compared with 22-hydroxycholesterol” value [1] was “nearly as well as 22-hydroxycholesterol”.

In the case of `O=S(=O)(c1ccccc1)N(CC(F)(F)F)c1ccc(C(O)(C(F)(F)F)C(F)(F)F)cc1` [TO-901317], the “increase of secreted Aβ42 over vehicle-treated cells” value [4] was 126%, the ABCA1 expression ([5]; 1 μM TO-901317 alone) was “increased” and the ABCA1 expression [5, 12] was “further increased”. For the same compound, the ABCA1 expression ([6]; 1 μM TO-901317 alone) was “increased”, the ABCA1 expression [6, 12] was “further increased” and the “increase of secreted Aβ40 over vehicle-treated cells” value [7] was 25%.
